Three compounds from patent US20210387996A1, “TRICYCLIC COMPOUNDS FOR THE TREATMENT AND PROPHYLAXIS OF HEPATITIS B VIRUS DISEASE” (priority 2018, published 2021) can be followed below.

The subject of assay [1] is HBV (extracellular HBsAg) in PHH. The assay is described as follows: Cryopreserved primary human hepatocytes (PHH) HBV infection assay, extracellular HBsAg (CLIA). In kind it is cell-based. As to conditions: Hepatitis B virus, Hepatocyte, 216 h, read-out: HBsAg IC50. The method, then:
This assay is used to confirm the anti-HBV effect of the compounds in HBV PHH infection assay. Cryopreserved PHH (BioreclamationIVT, Lot YJM) was thawed at 37° C. and gently transferred into pre-warmed InVitroGRO HT medium (BioreclamationIVT, Cat. S03317). The mixture was centrifuged at 70 relative centrifugal force (RCF) for 3 mins at RT, and the supernatant was discarded. Pre-warmed InVitroGRO CP medium (BioreclamationIVT, Cat #S03316) was added to the cell pellet to gently re-suspend cells. The cells were seeded at the density of 5.8×10^4 cells per well to collagen I coated 96-well plate (Gibco, Cat. A1142803) with the InVitroGRO CP medium. All plates were incubated at 37° C. with 5% CO2 and 85% humidity.
At 20 hours after plating, the medium was changed to PHH culture medium (Dulbecco's Modified Eagle Medium (DMEM)/F12 (1:1) (Gibco, Cat. 11320-033), 10% fetal bovine serum (Gibco Cat. 10099141), 100 U/mL penicillin, 100 μg/mL streptomycin (Gibco, Cat. 151401-122), 5 ng/mL human epidermal growth factor (Invitrogen Cat. PHG0311L), 20 ng/mL dexamethasone (Sigma, Cat. D4902) and 250 ng/mL human recombinant insulin (Gibco, Cat. 12585-014)). And the cells were incubated at 37° C. with 5% CO2 and 85% humidity for 4 hours. The medium was then changed to pre-warmed PHH culture medium containing 4% polyethylene glycol (PEG) MW8000 (Sigma, Cat. P1458-50ML) and 1% DMSO (Sigma, Cat. D2650). 5.8×10^6 genomic equivalents of HBV were added into the medium.
At 24 hours post-infection, the cells were gently washed with PBS and refreshed with PHH culture medium supplemented with 1% DMSO, and 0.25 mg/mL Matrix gel (Corning, Cat. 356237) at 200 μL per well. All plates were immediately placed in at 37° C. CO2 incubator.
24 hours later, serial dilutions of compounds made with DMSO were further diluted with the same culture medium (PHH culture medium supplemented with 1% DMSO and 0.25 mg/mL Matrix gel as described above) before they were added to the cells to reach desired final compound concentrations and 1% DMSO concentration. The medium containing the compounds were refreshed every three days.
At 9 days post-compound treatment, extracellular HBsAg level were measured with Chemiluminescence Immuno Assay (CLIA) kit (Autobio, HBsAg Quantitative CLIA). Extracellular HBV DNA was extracted by MagNA Pure 96 system (Roche) and then determined by quantitative PCR with the following primers and probe: […]
HBsAg IC50 and HBV DNA IC50 values were derived from the dose-response curve using 4 parameter logistic curve fit method. The compounds of formula (I) have HBsAg IC50<20 μM, particularly <1 μM; and HBV DNA IC50<50 μM.

The test system of assay [2] is HBeAg level in HepDES19 cells (surrogate marker for cccDNA). The assay is described as follows: Engineered HepDES19 primary screen assay (HBeAg as surrogate marker for cccDNA). The following applies: Hepatitis B virus, HepDES19, 120 h, read-out: IC50 (HBeAg level, HepDES19 primary screen assay). In kind it is cell-based, HBV. The source says:
The assay was employed to screen for novel cccDNA inhibitors. HepDES19 is a cccDNA-producing cell line. In this cell line, HBeAg in the cell culture supernatant as surrogate marker, as HBeAg production depends on cccDNA level and activity. HepDES19 is an engineered cell line which contains a 1.1 unit length HBV genome, and pgRNA transcription from the transgene is controlled by Tetracycline (Tet). In the absence of Tet, pgRNA transcription will be induced, but HBV e antigen (HBeAg) could not be produced from this pgRNA due to very short leader sequence before the HBeAg start codon and the start codon is disrupted. Only after cccDNA is formed, the missing leader sequence and start codon mutation would be restored from the 3′-terminal redundancy of pgRNA, and then HBeAg could be synthesized. Therefore, HBeAg could be used as a surrogate marker for cccDNA (Zhou, T. et al., Antiviral Res. (2006), 72(2), 116-124; Guo, H. et al., J. Virol. (2007), 81(22), 12472-12484).
HepDES19 cells were seeded at 2×10^6 cells per T150 flask and cultured with the culture medium (Dulbecco's Modified Eagle Medium: Nutrient Mixture F-12 [DMEM-F12, Gibco Cat. 11320-82], 10% Fetal Bovine Serum [FBS, Clontech Cat. 631101], 0.1 mM Non-Essential Amino Acids Solution [NEAA, Gibco Cat. 11140-050], 50 μg/mL Penicillin-Streptomycin [PS, Invitrogen Cat. 15140-163], 500 μg/mL Geneticin [G418, Invitrogen Cat. 10131-027]) containing 3 μg/mL Tet (Sigma, Cat. 87128) for 5 days. Cells were then seeded at 4×10^6 cells per T150 in the same culture medium as described above in the absence of Tet for 8 days. Cells were then harvested and frozen at density of 2×10^6 cells per mL. For compound testing, the frozen cells were thawed and seeded into 96-well plates at a density of 6×10^4 cells per well. At 24 hours after seeding, half log serial dilutions of compounds made with Dimethyl sulfoxide (DMSO, Sigma, Cat. D2650) were further diluted with the same culture medium as described above before they were added to the cells to reach desired final compound concentrations and 1% DMSO concentration. Plates were then incubated at 37° C. for another 5 days before measurement of HBeAg level and cell viability. Intracellular HBeAg level were measured with enzyme-linked immunosorbent assay (ELISA) kit (Shanghai Kehua Diagnostic Medical Products Co., Ltd). Cell viability was assessed using Cell Counting Kit-8 (Donjindo, Cat. CK04-20). IC50 values were derived from the dose-response curve using 4 parameter logistic curve fit method.
The compounds of the present invention were tested for their capacity to inhibit extracellular HBeAg level as described herein.

pIC50: −log10 of the molar value.

`COc1ccc(N2CCc3c(oc4c(Cl)cccc4c3=O)C2)cc1` [Example 40, 9-chloro-2-(4-methoxyphenyl)-1,2,3,4-tetrahydro-5H-chromeno[2,3-c]pyridin-5-one]: the negative-log IC50 (pIC50) – broadly, the IC50 on a negative log10 scale, so that one unit is a factor of ten – was 4.94 in assay [1] and 5.23 in assay [2].

On to `COc1cccc(N2CCc3c(oc4c(Cl)cccc4c3=O)C2)c1` [Example 41, 9-chloro-2-(3-methoxyphenyl)-1,2,3,4-tetrahydro-5H-chromeno[2,3-c]pyridin-5-one], for which the results for the pIC50 in assay [1] and in assay [2] were 4.51 and 4.72, respectively.

As to `O=C1c2oc3c(Cl)cccc3c(=O)c2CN1c1ccc(Cl)cc1` [Example 51, 5-chloro-2-(4-chlorophenyl)-1H-chromeno[2,3-c]pyrrole-3,9-dione], the pIC50 in assay [1] was 5.24; in assay [2] it was 5.26.
